Measurements taken from patent publication US10071975B2, “Macrocyclic amidinourea derivatives, methods of preparation and uses thereof as chitinase inhibitors” (CYGNET BIOSCIENCES B.V., priority 2013, dated 2018).
In brackets after ≈: the same amount, converted by molar mass. Read-outs that look alike come from different tables or passages of the source.

Key:
[1] = test system: C. albicans; assay: Antimicrobial susceptibility testing (microdilution MIC90), C. albicans strains; assay type: cell-based; conditions: Candida albicans; C. albicans (22 strains tested); 24 h, visually and spectrophotometrically
Experimental: (§1) Sterile plastic microtitration plates containing flat-bottomed wells were used. The plates contained serial dilution of the antifungal agents with a volume of assay medium of 100 μL/well. Two drug-free medium wells were used as sterility and growth controls. The trays were inoculated with 100 μL/well of the final inoculum, with the exception of sterility control wells. […] The microtitration plates were incubated at 37° C. for 24 h. The minimal inhibitory concentrations (MICs) were determined at 24 h both visually and spectrophotometrically measuring the turbidity at 595 nm with a Varian model 1475 spectrophotometer. Results of biological tests are shown in Table 2, biological data are reported as MIC90 that is the minimum concentration required to inhibit the growth of at least the 90% of the strains tested for each species.

[2] = test system: C. guilliermondii; assay: Antimicrobial susceptibility testing (microdilution MIC90), C. guilliermondii strains; assay type: cell-based, Candida guilliermondii; conditions: Meyerozyma guilliermondii; C. guilliermondii (10 strains tested); 24 h
Experimental: as §1

[3] = test system: C. krusei; assay: Antimicrobial susceptibility testing (microdilution MIC90), C. krusei strains; assay type: cell-based, Candida krusei; conditions: Pichia kudriavzevii, 24 h
Experimental: as §1

[4] = test system: C. parapsilosis; assay: Antimicrobial susceptibility testing (microdilution MIC90), C. parapsilosis strains; assay type: cell-based, Candida parapsilosis; conditions: Lodderomyces parapsilosis; C. parapsilosis (24 strains tested); 24 h
Experimental: as §1

[5] = test system: C. tropicalis; assay: Antimicrobial susceptibility testing (microdilution MIC90), C. tropicalis strains; assay type: cell-based; conditions: Candida tropicalis; C. tropicalis (11 strains tested); 24 h
Experimental: as §1

[6] = test system: C. kefyr; assay: Antimicrobial susceptibility testing (microdilution MIC90), C. kefyr strains; assay type: cell-based, Candida kefyr; conditions: Kluyveromyces marxianus; C. kefyr (10 strains tested); 24 h
Experimental: as §1

[7] = test system: C. glabrata; assay: Antimicrobial susceptibility testing (microdilution MIC90), C. glabrata strains; assay type: cell-based, Candida glabrata; conditions: Nakaseomyces glabratus; C. glabrata (26 strains tested); 24 h
Experimental: as §1

[8] = test system: C. albicans fluconazole resistant strains; assay: microbe, parasite or virus in culture; assay type: cell-based; conditions: Candida albicans, 24 h
[9] = test system: C. glabrata fluconazole resistant strains; assay: microbe, parasite or virus in culture; assay type: cell-based, Candida glabrata; conditions: Nakaseomyces glabratus, 24 h
[10] = test system: chitinase enzyme extracted from Trichoderma viride; assay: Chitinase inhibition assay (NP-GlcNAc substrate); assay type: biochemical
Experimental: Chitinase inhibition assays were conducted against an example of the GH18 family of chitinases, i.e the chitinase enzyme extracted from Trichoderma viride. This enzyme has an high degree of identity compared to chitinase 4 of Candida albicans, and is commercially available from Sigma-Aldrich (catalogue ID: C8241).
The substrate used was the NP-GlcNAc (Sigma-Aldrich, catalogue ID: N9376) dissolved in MES 50 mM at pH6.0; the final concentration was 250 μM. The enzyme was resuspended at 0.11 mg/ml in MES 50 mM at pH 6.0, with a final concentration for the assay of 73 nM diluting with MES 50 mM and BSA 20 μg/ml at pH 6.0. A stock solution of the inhibitors was prepared at 50 mM in DMSO 100%.
The mixture with the inhibitor at various concentrations and the enzyme was prepared directly into the reading plate and left to incubate at room temperature for 20 minutes or three hours. At the end of the incubation times, the substrate was added and the reading was conducted by recording the values up to a maximum time of 10 minutes. The substrate concentration was measured by reading UV absorption at 300 nm (εM^300: 11100), while, the product of hydrolysis were measured at 400 nm (ΔεM^400: 2120). Both IC50 and Ki can be calculated.

[11] = C. krusei (13 strains tested), read-out: MIC90
[12] = strain DSY284, ERG11 Mutation, mean of three measurements
[13] = strain DSY289, ERG11 Mutation (2)
[14] = strain DSY291, ERG11 Mutation (2)
[15] = strain DSY292, ERG11 Mutation (3)
[16] = strain DSY751, ↑MDR1, ERG11 Mutation
[17] = Enz.-inhib. incubation time 20 min
[18] = Enz.-inhib. incubation time 3 h

Compound	MIC90 [1]	MIC90 [2]	MIC90 [4]	MIC90 [5]	MIC90 [6]	MIC90 [7]	MIC [8, 12]	MIC [8, 13]	MIC [8, 14]	MIC [8, 15]	MIC ([8]; strain DSY296, ERG11 Mutation)	MIC ([8]; strain DSY348, ERG11 Mutation)	MIC ([8]; strain DSY732, ↑CDR1-CDR2)	MIC ([8]; strain DSY735, ↑CDR1-CDR2)	MIC ([8]; strain DSY750, ↑MDR1)	MIC [8, 16]	MIC ([8]; strain DSY775, ERG11 Mutation)	MIC ([8]; strain DSY2323, ↑CDR2-MDR1)	MIC ([9]; strain DSY530, ↑CDR1)	MIC ([9]; strain DSY754, ↑CDR1)	other results
C/C=C/CNC(=N)NCCCCCCCCN1CCCCCOc2ccccc2CNC(=N)NC1=O [Example 17, 1-[(E)-but-2-enyl]-3-[8-(4-imino-6-oxo-13-oxa-3,5,7-triazabicyclo[12.4.0]octadeca-1(14),15,17-trien-7-yl)octyl]guanidine]	4 µg/mL (≈ 8 µM)	2 µg/mL (≈ 4 µM)	2 µg/mL (≈ 4 µM)	2 µg/mL (≈ 4 µM)	4 µg/mL (≈ 8 µM)	8 µg/mL (≈ 16 µM)	2 µg/mL (≈ 4 µM)	2 µg/mL (≈ 4 µM)	4 µg/mL (≈ 8 µM)	4 µg/mL (≈ 8 µM)	4 µg/mL (≈ 8 µM)	2 µg/mL (≈ 4 µM)	2 µg/mL (≈ 4 µM)	2 µg/mL (≈ 4 µM)	4 µg/mL (≈ 8 µM)	4 µg/mL (≈ 8 µM)	4 µg/mL (≈ 8 µM)	4 µg/mL (≈ 8 µM)	8 µg/mL (≈ 16 µM)	16 µg/mL (≈ 32 µM)	MIC90 [3, 11]: 8 µg/mL (≈ 16 µM); MIC ([9]; strain DSY756, ↑CDR1-CDR2-SNQ2): 8 µg/mL (≈ 16 µM); MIC ([9]; strain DSY2254, ↑CDR1-CDR2): 16 µg/mL (≈ 32 µM); MIC ([9]; strain DSY2271, ↑CDR2): 8 µg/mL (≈ 16 µM); inhibition of the chitinase enzyme [10]: active inhibitor; IC50 [10, 17]: 151 µM; Ki [10, 17]: 48.8 µM; IC50 [10, 18]: 55 µM; Ki [10, 18]: 17.8 µM
C/C=C/CNC(=N)NCCCCCCCCN1CCCCCCOc2ccccc2CNC(=N)NC1=O [Example 18, 1-[(E)-but-2-enyl]-3-[8-(4-imino-6-oxo-14-oxa-3,5,7-triazabicyclo[13.4.0]nonadeca-1(15), 16,18-trien-7-yl)octyl]guanidine]	4 µg/mL (≈ 7.79 µM)	2 µg/mL (≈ 3.89 µM)	2 µg/mL (≈ 3.89 µM)	1 µg/mL (≈ 1.95 µM)	2 µg/mL (≈ 3.89 µM)	16 µg/mL (≈ 31.1 µM)	8 µg/mL (≈ 15.6 µM)	8 µg/mL (≈ 15.6 µM)	16 µg/mL (≈ 31.1 µM)	16 µg/mL (≈ 31.1 µM)	16 µg/mL (≈ 31.1 µM)	8 µg/mL (≈ 15.6 µM)	16 µg/mL (≈ 31.1 µM)	16 µg/mL (≈ 31.1 µM)	16 µg/mL (≈ 31.1 µM)	16 µg/mL (≈ 31.1 µM)	16 µg/mL (≈ 31.1 µM)	16 µg/mL (≈ 31.1 µM)	32 µg/mL (≈ 62.3 µM)	32 µg/mL (≈ 62.3 µM)	MIC90 [3, 11]: 4 µg/mL (≈ 7.79 µM); MIC ([9]; strain DSY756, ↑CDR1-CDR2-SNQ2): 64 µg/mL (≈ 125 µM); MIC ([9]; strain DSY2254, ↑CDR1-CDR2): 64 µg/mL (≈ 125 µM); MIC ([9]; strain DSY2271, ↑CDR2): 32 µg/mL (≈ 62.3 µM)
C/C=C/CNC(=N)NCCCCCCCCN1CCCCCOC(=O)CCNC(=N)NC1=O [Example 19, 1-[(E)-but-2-enyl]-3-[8-(6-imino-2,8-dioxo-1-oxa-5,7,9-triazacyclotetradec-9-yl)octyl]guanidine]	32 µg/mL (≈ 68.7 µM)	32 µg/mL (≈ 68.7 µM)	32 µg/mL (≈ 68.7 µM)	32 µg/mL (≈ 68.7 µM)	32 µg/mL (≈ 68.7 µM)	64 µg/mL (≈ 137 µM)	16 µg/mL (≈ 34.4 µM)	8 µg/mL (≈ 17.2 µM)	8 µg/mL (≈ 17.2 µM)	16 µg/mL (≈ 34.4 µM)	16 µg/mL (≈ 34.4 µM)	8 µg/mL (≈ 17.2 µM)	8 µg/mL (≈ 17.2 µM)	8 µg/mL (≈ 17.2 µM)	16 µg/mL (≈ 34.4 µM)	16 µg/mL (≈ 34.4 µM)	16 µg/mL (≈ 34.4 µM)	16 µg/mL (≈ 34.4 µM)	64 µg/mL (≈ 137 µM)	64 µg/mL (≈ 137 µM)	MIC90 [3, 11]: 64 µg/mL (≈ 137 µM); MIC ([9]; strain DSY756, ↑CDR1-CDR2-SNQ2): 128 µg/mL (≈ 275 µM); MIC ([9]; strain DSY2254, ↑CDR1-CDR2): 128 µg/mL (≈ 275 µM); MIC ([9]; strain DSY2271, ↑CDR2): 64 µg/mL (≈ 137 µM)
OC(Cn1cncn1)(Cn1cncn1)c1ccc(F)cc1F [F, Fluconazole, reference compound]	2 µg/mL (≈ 6.53 µM)	4 µg/mL (≈ 13.1 µM)	0.5 µg/mL (≈ 1.63 µM)	2 µg/mL (≈ 6.53 µM)	1 µg/mL (≈ 3.27 µM)	16 µg/mL (≈ 52.2 µM)	256 µg/mL (≈ 836 µM)	256 µg/mL (≈ 836 µM)	2 µg/mL (≈ 6.53 µM)	64 µg/mL (≈ 209 µM)	128 µg/mL (≈ 418 µM)	32 µg/mL (≈ 104 µM)	16 µg/mL (≈ 52.2 µM)	64 µg/mL (≈ 209 µM)	2 µg/mL (≈ 6.53 µM)	256 µg/mL (≈ 836 µM)	128 µg/mL (≈ 418 µM)	32 µg/mL (≈ 104 µM)	64 µg/mL (≈ 209 µM)	64 µg/mL (≈ 209 µM)	MIC90 [3]: 256 µg/mL (≈ 836 µM); MIC ([9]; strain DSY756, ↑CDR1-CDR2-SNQ2): 128 µg/mL (≈ 418 µM); MIC ([9]; strain DSY2254, ↑CDR1-CDR2): 128 µg/mL (≈ 418 µM); MIC ([9]; strain DSY2271, ↑CDR2): 64 µg/mL (≈ 209 µM)
